{"source": "patent US20230059022A1", "about": "“PRUSSIAN BLUE ZnO CARBON NANOTUBE COMPOSITE FOR MEASURING HYDROGEN PEROXIDE IN CANCER CELLS” (Middle Tennessee State University, priority 2020, published 2023)", "type_in_all_cases": "cell-based", "key": {"[1]": {"test_system": "4T1 cancer cells", "experiment": "ELISA (Amplex Red hydrogen peroxide release assay) of 4T1 cells"}, "[2]": {"test_system": "4T1 cancer cells", "experiment": "SAM CA (chronoamperometry with standard addition) of hydrogen peroxide release from 4T1 cells", "experimental": "(§1) BT20 and 4T1 cells were purchased from American Type Culture Collection (ATCC). Both cell lines were maintained in RPMI-1640 medium (Sigma-Aldrich) with 10% Fetal Bovine Serum (FBS) (Gibco) at 37° C. with 5% CO2. The medium was renewed every two days. Well-grown BT20 cells in logarithmic phase were digested by 0.25% (w/v) Trypsin (Fisher Scientific) from the original culture flask and mixed well before being seeded on a 96-well cell culture plate (Denville Scientific) with a density of 5×10^4 cells/mL and incubated with the same full medium at 37° C. with 5% CO2 for 24 h. Cells were then treated with 100 μL of 50 μM doxonibicin (Dox) (Sigma-Aldrich). […]\n(§2) Electrochemical activity of the PB/ZnO/COOH-MWNTs was studied using cyclic voltammetry (CV) and chronoamperometry (CA) using AfterMath™ software ver 1.2.5658 and a WaveNano™ potentiostat (Pine Research Instrument Co., Raleigh, N.C., USA). […] The concentrations of hydrogen peroxide in BT20 cancer cells were measured chronoamperometrically, employing the standard addition method (CA SAM). Samples were measured by standard additions of hydrogen peroxide in increasing order to create the calibration curve needed to determine the unknown hydrogen peroxide concentration in the cancer cells. BT20 and 4T1 cancer cells were cultured and the concentration of hydrogen peroxide in the cancer cells analyzed using this sensor. […]"}, "[3]": {"test_system": "BT20 cancer cells", "experiment": "ELISA (Amplex Red hydrogen peroxide release assay) of BT20 cells", "details": "single replicate wells", "experimental": "BT20 and 4T1 cells were purchased from American Type Culture Collection (ATCC). Both cell lines were maintained in RPMI-1640 medium (Sigma-Aldrich) with 10% Fetal Bovine Serum (FBS) (Gibco) at 37° C. with 5% CO2. The medium was renewed every two days. Well-grown BT20 cells in logarithmic phase were digested by 0.25% (w/v) Trypsin (Fisher Scientific) from the original culture flask and mixed well before being seeded on a 96-well cell culture plate (Denville Scientific) with a density of 5×10^4 cells/mL and incubated with the same full medium at 37° C. with 5% CO2 for 24 h. Cells were then treated with 100 μL of 50 μM doxonibicin (Dox) (Sigma-Aldrich). Cells treated with 100 μL of vehicle (RPMI-1640 medium) only served as a control. The Dox group and control group each had eight replicate wells. After 24 h of incubation, 50 μL of the medium was collected from each well and proceeded for hydrogen peroxide determination.\nThe hydrogen peroxide release assay was carried on using Amplex™ Red Hydrogen Peroxide/Peroxidase Assay Kit (Invitrogen) according to the instruction. […] After incubation at room temperature in the dark for 30 min, the absorbance of each well at 560 nm of was measured with a CLARIOstar™ microplate reader (BMG Labtech). The concentration of hydrogen peroxide in the sample was calculated according to the standard curve. […]"}, "[4]": {"test_system": "BT20 cancer cells", "experiment": "SAM CA (chronoamperometry with standard addition) of hydrogen peroxide release from BT20 cells", "experimental": "as §1, §2"}}, "note": "Several values for one entry are separate records, joined by “and”; a condition that tells them apart may be missing. Identical values can stand only once.", "data": [{"smiles": "COc1cccc2c1C(=O)c1c(O)c3c(c(O)c1C2=O)C[C@@](O)(C(=O)CO)C[C@@H]3O[C@H]1C[C@H](N)[C@H](O)[C@H](C)O1", "note": "[Dox, doxonibicin]", "values": [{"measurement": "H2O2 from Dox treated 4T1 cancer cells, ELISA results", "setting": "[1]; Dox treated, single replicate wells", "value": "1.9605 µM and 2.0921 µM and 2.4868 µM and 2.75 µM and 2.8816 µM and 2.6184 µM and 3.0132 µM and 1.8289 µM"}, {"measurement": "difference in hydrogen peroxide between Dox-treated and untreated 4T1 cells by ELISA", "setting": "[1]; p=0.8932", "value": "no statistical difference"}, {"measurement": "H2O2 from Dox treated 4T1 cancer cells, SAM CA", "setting": "[2]; 4T1 cells, Dox treated, single replicates, SAM CA", "value": "14 µM and 15.6 µM and 16 µM"}, {"measurement": "concentration of hydrogen peroxide released in Dox-treated 4T1 cancer cells (mean)", "setting": "[2]; Dox-treated 4T1 cells, CA SAM, n=3, p=0.0182 vs untreated", "value": 15.2, "unit": "µM"}, {"measurement": "H2O2 from Dox-treated BT20 cancer cells, ELISA results", "setting": "[3]", "value": "5.0152 μM and 5.3182 μM (2×) and 5.6212 μM (2×) and 6.0758 μM and 6.9848 μM and 4.4091 μM"}, {"measurement": "hydrogen peroxide concentration in Dox-treated BT20 cancer cells (mean)", "setting": "[4]; 48 h Dox-treated BT20 cells, CA SAM, n=6", "value": "16.0 ± 1.4", "unit": "µM"}, {"measurement": "H2O2 from Dox-treated BT20 cancer cells, SAM CA", "setting": "[4]; BT20 cells, Dox treated, single replicates, SAM CA", "value": "15.1 μM and 15.88 μM (2×) and 17.47 μM (2×) and 14.42 μM"}]}]}
